Results published in publication PMC6124754, “Characterization of new, efficient Mycobacterium tuberculosis topoisomerase-I inhibitors and their interaction with human ABC multidrug transporters” (PLoS ONE, 2018).
Converted amounts (≈) assume the structure as drawn. “Also recorded” adds a separate entry of the source. Read-outs that look alike come from different tables or passages of the source.

Assays:
H37Rv Mtb strain = test: H37Rv growth inhibition, resazurin reduction microplate assay (REMA); type: cell-based, Mycobacterium tuberculosis; details: for MIC90: Mycobacterium tuberculosis, H37RV, read-out: MIC90 of compounds in H37Rv growth test; for Toxicity in H37Rv assay (summary): S6 summary table; for Growth inhibition of H37Rv mycobacteria (in words): tested up to 20 μM
human ABCG2 [1] = target: T1, human ABCG2 (Homo sapiens, UniProt Q9UNQ0); test: Vanadate-sensitive ATPase activity assay in Sf9 membrane vesicles, ABCG2; type: biochemical; design: made in house; host or cells: Sf9 insect cells (baculovirus), membrane vesicles; ABCG2 ATPase, concentration at Vmax: unit not given here; details: for ABC transporter ATPase assay, ABCG2 (summary): S6 summary table; for ABCG2 ATPase Vmax: vanadate-sensitive ATPase, from dose-response curves, basal 22±1.4; for ABCG2 ATPase, concentration at Vmax: concentration at which Vmax was seen
T1 sequence (Q9UNQ0 1-655): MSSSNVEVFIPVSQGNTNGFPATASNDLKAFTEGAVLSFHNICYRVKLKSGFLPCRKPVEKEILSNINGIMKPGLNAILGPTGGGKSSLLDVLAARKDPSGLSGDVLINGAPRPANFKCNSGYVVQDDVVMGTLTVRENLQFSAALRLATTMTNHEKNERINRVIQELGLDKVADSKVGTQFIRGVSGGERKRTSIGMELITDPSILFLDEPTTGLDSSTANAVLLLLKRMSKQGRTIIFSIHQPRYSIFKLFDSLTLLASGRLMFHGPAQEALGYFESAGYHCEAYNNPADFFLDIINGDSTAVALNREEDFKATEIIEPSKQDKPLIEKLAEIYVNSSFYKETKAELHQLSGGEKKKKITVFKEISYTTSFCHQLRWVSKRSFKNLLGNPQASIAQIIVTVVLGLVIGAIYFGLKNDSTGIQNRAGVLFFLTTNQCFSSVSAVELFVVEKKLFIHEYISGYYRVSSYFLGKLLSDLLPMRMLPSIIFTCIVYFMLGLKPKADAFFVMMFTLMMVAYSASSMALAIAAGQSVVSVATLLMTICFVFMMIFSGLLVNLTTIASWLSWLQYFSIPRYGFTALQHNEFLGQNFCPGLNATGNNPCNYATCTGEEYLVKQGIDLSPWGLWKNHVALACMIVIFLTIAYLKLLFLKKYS

HEK293 cell line = test: Cytotoxicity, PrestoBlue 72 h, HEK293; type: cell-based, human; details: for IC50: Homo sapiens, HEK293, Non-toxic = not toxic up to 20 μM, read-out: Toxicity in HEK293 cell line, IC50
Description: (§1) The toxic effects of the selected MtTopo-I inhibitory Vichem compounds were tested in three cell lines, HFF (human foreskin fibroblast), HEK293 (human embryonic kidney) and A431 (human epidermoid carcinoma) cell lines, obtained from ATCC. Establishment of ABC transporter-expressing A431cell lines was achieved by retroviral transduction of the cells as described previously.
(§2) For cytotoxicity measurements the cells were seeded in a 96-well culture plate at 5,000 cells/well (A431, HEK293) or 6000 cells/well (HFF) and incubated overnight. […] After 72 hours of incubation viability was assessed by PrestoBlue® assay (Invitrogen). IC50 values were obtained by sigmoidal curve fitting in the GraphPad Prism software. All experiments were performed in triplicates and repeated at least in three independent experiments. DMSO, used as solvent of the compounds, had no effect on viability at the applied concentration.

[2] = system: ABCB1-overexpressing A431 cell line; details: 72 h; for Resistance modulation by ABCB1 (fold increase in IC50): ABCB1-expressing versus parental A431 cells; for ABC transporter modified cytotoxicity, ABCB1 (summary): human
MtTopo-I = target: T2, MtTopo-I (Mycobacterium tuberculosis, UniProt P9WG49); test: DNA relaxation assay of supercoiled pUC18 DNA by MtTopo-I; type: biochemical; details: minimum concentration providing complete inhibition
T2 construct: made in house; host or cells: E. coli
T2 sequence (P9WG49 whole entry): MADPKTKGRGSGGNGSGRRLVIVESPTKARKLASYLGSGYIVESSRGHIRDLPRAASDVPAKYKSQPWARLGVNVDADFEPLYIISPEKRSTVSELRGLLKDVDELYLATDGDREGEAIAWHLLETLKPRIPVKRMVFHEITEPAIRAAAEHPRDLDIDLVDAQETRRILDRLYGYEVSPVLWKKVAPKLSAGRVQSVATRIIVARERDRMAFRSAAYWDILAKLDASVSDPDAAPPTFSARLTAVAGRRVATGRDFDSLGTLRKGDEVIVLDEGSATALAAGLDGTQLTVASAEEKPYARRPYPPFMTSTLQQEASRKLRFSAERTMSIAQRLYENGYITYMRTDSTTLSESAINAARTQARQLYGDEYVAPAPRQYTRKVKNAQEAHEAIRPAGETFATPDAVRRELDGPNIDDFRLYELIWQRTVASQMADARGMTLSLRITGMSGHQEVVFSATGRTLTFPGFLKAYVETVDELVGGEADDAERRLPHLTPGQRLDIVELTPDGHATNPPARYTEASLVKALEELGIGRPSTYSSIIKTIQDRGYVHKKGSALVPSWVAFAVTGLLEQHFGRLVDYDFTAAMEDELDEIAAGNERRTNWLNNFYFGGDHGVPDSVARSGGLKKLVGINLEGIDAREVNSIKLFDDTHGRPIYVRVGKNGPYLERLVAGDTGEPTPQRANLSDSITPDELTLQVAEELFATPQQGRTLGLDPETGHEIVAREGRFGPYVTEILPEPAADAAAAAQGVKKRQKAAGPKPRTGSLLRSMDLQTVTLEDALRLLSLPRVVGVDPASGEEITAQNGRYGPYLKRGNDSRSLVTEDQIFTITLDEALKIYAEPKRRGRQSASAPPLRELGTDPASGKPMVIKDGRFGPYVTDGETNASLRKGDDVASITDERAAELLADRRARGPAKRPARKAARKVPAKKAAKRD

HFF cell line = test: Cytotoxicity, PrestoBlue 72 h, HFF; type: cell-based, human; details: Non-toxic = not toxic up to 20 μM, read-out: Toxicity in HFF cell line, IC50
Description: as §1, §2

human ABCG2 [3] = target: T1, human ABCG2; test: Cellular transport assay, DCV or mitoxantrone uptake in ABCG2-overexpressing PLB cells; type: cell-based; design: expressed in transfected cells; host or cells: PLB (human lymphoblastoid) cells, lentiviral transduction; details: S6 summary table; further: key: 0: no observed effect; +: effect observed in the assay; In the ATPase assay showing only inhibition, the - sign is applied
Description: (§3) For cellular transport assays, mammalian PLB (lymphoblastoid) cell lines, overexpressing ABCB1 or ABCG2 were used. The parental PLB cell line was purchased from ATCC, and ABCB1 or ABCG2 overexpressing cell lines were established by using lentiviral vectors for human ABC transporters as described earlier in [29]. The transport assays were carried out in 96-well plates. 1x10^5 cells were incubated in the presence of 0.1 μM Calcein-AM or 1 μM DCV (Dye Cycler Violet) for the ABCB1 and for the ABCG2 assays, respectively. The assay was performed in HPMI medium (NaCl 120 mM, KCl 5 mM, MgCl2 0.4 mM, CaCl2 0.04 mM, HEPES 10 mM, NaHCO3 10 mM, glucose 10 mM, Na2HPO4 5 mM; pH 7.4). Fluorescence of the cells was detected using a Victor X3 plate reader (for Calcein, exc. at 485 nm, em. at 535 nm) or the Enspire 2300 (Perkin Elmer) plate reader (for DCV, exc. at 360 nm, em. at 440 nm). Kinetics of fluorescence intensity changes were analyzed to determine relative inhibition, compared to that of a reference agent, providing full inhibition of the ABC transporter. Two of the Vichem compounds examined (VCC979812 and VCC38977) were not compatible with the DCV uptake assay because of their intrinsic fluorescence, therefore for these two compounds ABCG2 transport inhibition was characterized by following mitoxantrone uptake. Mitoxantrone uptake was measured by flow cytometry (BD FACSCanto at 633 nm) by 20 minutes incubation in the presence of 7.5 μM mitoxantrone. Each compound was measured in at least three independent experiments with three parallels in each case. DMSO, used as a solvent of compounds had no effect in this assay at the applied concentration.

[4] = system: ABCG2-overexpressing A431 cell line; details: 72 h; for Resistance modulation by ABCG2 (fold increase in IC50): ABCG2-expressing versus parental A431 cells; for ABC transporter modified cytotoxicity, ABCG2 (summary): human
[5] = system: HFF, HEK293 and A431 cell lines; type: cell-based, human
Description: as §1, §2

parental A431 cell line = test: Cytotoxicity, PrestoBlue 72 h, parental A431; type: cell-based, human; details: Non-toxic = not toxic up to 20 μM, read-out: Toxicity in parental A431 cell line, IC50
Description: as §1, §2

human ABCB1 [6] = target: T3, human ABCB1 (Homo sapiens, UniProt P08183); test: Cellular transport assay, Calcein-AM uptake in ABCB1-overexpressing PLB cells; type: cell-based; details: S6 summary table; further: key: 0: no observed effect; +: effect observed in the assay; In the ATPase assay showing only inhibition, the - sign is applied
T3 sequence (P08183 whole entry): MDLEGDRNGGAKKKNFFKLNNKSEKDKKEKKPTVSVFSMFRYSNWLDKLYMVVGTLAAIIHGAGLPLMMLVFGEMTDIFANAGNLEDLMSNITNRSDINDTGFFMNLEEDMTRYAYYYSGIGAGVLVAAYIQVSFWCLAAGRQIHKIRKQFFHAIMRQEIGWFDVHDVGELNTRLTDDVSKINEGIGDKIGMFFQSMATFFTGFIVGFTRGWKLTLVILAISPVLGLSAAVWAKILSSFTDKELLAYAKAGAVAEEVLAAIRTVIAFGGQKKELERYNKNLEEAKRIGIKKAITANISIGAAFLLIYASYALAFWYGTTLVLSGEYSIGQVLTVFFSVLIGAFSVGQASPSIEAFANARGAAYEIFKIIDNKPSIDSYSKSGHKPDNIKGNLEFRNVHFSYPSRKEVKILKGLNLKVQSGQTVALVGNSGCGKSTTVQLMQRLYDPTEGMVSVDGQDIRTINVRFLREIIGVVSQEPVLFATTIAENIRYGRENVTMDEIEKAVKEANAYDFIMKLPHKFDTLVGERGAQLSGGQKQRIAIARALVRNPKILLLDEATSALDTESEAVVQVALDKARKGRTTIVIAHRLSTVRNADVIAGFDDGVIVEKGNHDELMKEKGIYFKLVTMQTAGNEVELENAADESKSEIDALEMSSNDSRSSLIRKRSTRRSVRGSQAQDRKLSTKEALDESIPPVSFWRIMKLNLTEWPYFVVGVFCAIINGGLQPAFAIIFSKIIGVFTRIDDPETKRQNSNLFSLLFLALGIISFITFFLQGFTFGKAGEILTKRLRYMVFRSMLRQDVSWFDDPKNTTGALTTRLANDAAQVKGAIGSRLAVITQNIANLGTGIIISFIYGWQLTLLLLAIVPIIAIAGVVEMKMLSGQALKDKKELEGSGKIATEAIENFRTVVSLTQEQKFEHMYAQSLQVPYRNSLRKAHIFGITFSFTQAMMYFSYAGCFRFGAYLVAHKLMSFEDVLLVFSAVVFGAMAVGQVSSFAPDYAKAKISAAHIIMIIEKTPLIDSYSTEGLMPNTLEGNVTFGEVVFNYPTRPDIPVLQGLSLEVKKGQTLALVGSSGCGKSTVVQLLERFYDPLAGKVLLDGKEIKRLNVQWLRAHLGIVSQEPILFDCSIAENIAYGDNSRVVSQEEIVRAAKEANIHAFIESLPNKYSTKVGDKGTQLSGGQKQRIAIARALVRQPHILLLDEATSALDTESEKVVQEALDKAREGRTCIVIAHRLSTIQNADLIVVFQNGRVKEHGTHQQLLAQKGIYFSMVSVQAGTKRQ
Description: as §3

human ABCB1 [7] = target: T3, human ABCB1; test: Vanadate-sensitive ATPase activity assay in Sf9 membrane vesicles, ABCB1; type: biochemical; design: made in house; host or cells: Sf9 insect cells (baculovirus), membrane vesicles; ABCB1 ATPase Vmax: unit not given here; details: for Effect on ABCB1-ATPase activity (in words): Sf9 membrane vesicles, 0.1–10 μM for the stimulation in b53; for ABCB1 ATPase Vmax: vanadate-sensitive ATPase, from dose-response curves, basal 5.7±0.7; for ABC transporter ATPase assay, ABCB1 (summary): S6 summary table; for ABCB1 ATPase, concentration at Vmax: concentration at which Vmax was seen; on ABC transporter ATPase assay, ABCB1 (summary): key: 0: no observed effect; +: effect observed in the assay; In the ATPase assay showing only inhibition, the - sign is applied
[8] = minimum concentration providing 90% growth inhibition, 20 to 0.04 μM, N.I. = no inhibition observed up to 20 μM

| Structure (SMILES) | MIC90 (H37Rv Mtb strain; [8]) [µM] | Toxicity in H37Rv assay (summary) (H37Rv Mtb strain) | Growth inhibition of H37Rv mycobacteria (in words) (H37Rv Mtb strain) | ABC transporter ATPase assay, ABCG2 (summary) (human ABCG2 [1]) | ABCG2 ATPase Vmax (human ABCG2 [1]) | IC50 (HEK293 cell line) [µM] | Resistance modulation by ABCB1 (fold increase in IC50) [2] | ABC transporter modified cytotoxicity, ABCB1 (summary) [2] | Complete inhibition of MtTopoI (MtTopo-I) [µM] | IC50 (HFF cell line; Homo sapiens, HFF) [µM] | IC50 (HFF cell line) [µM] | ABC transporter transport assay, ABCG2 (summary) (human ABCG2 [3]) | Resistance modulation by ABCG2 (fold increase in IC50) [4] | ABC transporter modified cytotoxicity, ABCG2 (summary) [4] | Toxicity in human cell lines (in words) [5] | Toxicity in mammalian cell lines (summary) [5] | IC50 (parental A431 cell line; Homo sapiens, A-431, 72 h) [µM] | IC50 (parental A431 cell line) [µM] | ABC transporter transport assay, ABCB1 (summary) (human ABCB1 [6]) | ABCB1 ATPase Vmax (human ABCB1 [7]) | other results |
| --- | --- | --- | --- | --- | --- | --- | --- | --- | --- | --- | --- | --- | --- | --- | --- | --- | --- | --- | --- | --- | --- |
| CN(C)CCCNc1nc(/C=C/c2ccc(Cl)cc2)nc2cc3ccccc3cc12 [VCC450822] | 5.1 (≈ 2.13 µg/mL) | + | effectively inhibited the growth | 0 | 23.3±2 | 10 to 20 | 0.97±0.05 | 0 | 10.0 | < 5 | 2.5 to 5 | 0 | 1.0±0.03 | 0 | toxic | + | < 5 | 3.5 | 0 | 10.5±1.5 | Resistance modulation by ABCB1 (fold increase in IC50) ([2]; listed as VCC480522): no difference; Resistance modulation by ABCG2 (fold increase in IC50) ([4]; listed as VCC480522): no difference; Effect on ABCB1-ATPase activity (in words) (human ABCB1 [7]): well measurable stimulatory effect; also recorded: slight stimulation of the ABCB1-ATPase activity at lower concentrations; also recorded: strongly inhibited ATPase activity at higher concentrations; also recorded: slightly increased |
| COc1ccc(/C=C/c2nc(NCCCN3CCOCC3)c3cc4ccccc4cc3n2)cc1 [VCC478498] | 0.6 (≈ 0.273 µg/mL) | + | effectively inhibited the growth | - | 21.5±2.4 | 10 to 20 |  | 0 | 10 to 25 | < 5 | 2.5 to 5 | + |  | 0 | toxic | + | < 5 | 3.03 | + | 7.2±1.8 | Effect on ABCG2-ATPase activity (in words) (human ABCG2 [1]; Sf9 membrane vesicles, 0.1–10 μM for stimulation, 50 μM for inhibition): only an inhibition; ABCG2 ATPase, concentration at Vmax (human ABCG2 [1]): 2; ABC transporter ATPase assay, ABCB1 (summary) (human ABCB1 [7]): 0; ABCB1 ATPase, concentration at Vmax (human ABCB1 [7]): 6.25 µM |
| CC(C)CCNc1nc2cc3ccccc3cc2nc1NCCC(C)C [VCC979812] |  | 0 |  | 0 | 22±3 |  | 1.1±0.08 | 0 | 10 | 20 |  | + | 1±0.1 | 0 |  |  | 19 |  | + | 15.8±2 | MIC90 of compounds in H37Rv growth test (H37Rv Mtb strain; [8]): N.I.; ABCG2 ATPase, concentration at Vmax (human ABCG2 [1]): 0.4; Toxicity in HEK293 cell line, IC50 (HEK293 cell line; Non-toxic = not toxic up to 20 μM): Non-toxic; Toxicity in mammalian cell lines (summary) ([5]; human, 72 h): 0/slight; ABC transporter ATPase assay, ABCB1 (summary) (human ABCB1 [7]): +; Effect on ABCB1-ATPase activity (in words) (human ABCB1 [7]): well measurable stimulatory effect; also recorded: slightly increased; ABCB1 ATPase, concentration at Vmax (human ABCB1 [7]): 12.5 µM |
